# Measurements published in patent US20210177889A1, “GASEOUS PHARMACEUTICAL COMPOSITION FOR HYPERTENSION THERAPY” (KEIO UNIVERSITY, priority 2019, published 2021).
# How the values were obtained:
# [1] = test system: hypertension attributed to 5/6 nephrectomy; assay: Continuous telemetry blood pressure monitoring after 5/6 nephrectomy with daily H2 inhalation; assay type: in vivo, Lewis rat
# From the text: In order to monitor continuous blood pressure fluctuation, telemetry transmitters were implanted into rats. Specifically, rats were anesthetized with isoflurane, and the left groin was disinfected with 1% chlorhexidine. An incision of about 1.5 cm was made in the left groin, the left femoral artery was exposed, and a telemetry transmitter (HD-S10, Physiotel HD Telemetry, Data Science International) catheter was inserted into the left femoral artery. The tip of the transmitter catheter was placed in the abdominal aorta caudally from the branch of the renal artery. The transmitter body was inserted into a subcutaneous pocket made in the left lower back, and the skin was sutured. All surgical intervention was performed under sterile conditions. In order to elicit renal hypertension, 5/6 nephrectomy was carried out with slight modification to previously described methods (Nephrology (Carlton) 19, 552-561; 10.1111/nep.12279 (2014); J. Am. Soc. Nephrol. 4, 2023-2031 (1994); and Kidney Int. 40, 29-34; 10.1038/ki.1991.175 (1991).). Briefly, rats were anesthetized by isoflurane inhalation (induction at 4% and maintenance at 1.5%), and upper midline laparotomy of about 4 cm was carried out. Surgical operation was performed under a microscope, the left renal artery branch was identified, and selectively ligated with 7-0 silk at a position as close as possible to the left kidney so that macroscopic infarction is caused in about ⅔ of the left renal cortex. In the first pilot research (FIGS. 1a and 2), a high-temperature cautery pen (AA11, Bovie, Tenn., U.S.A.) was used to add the resection of the infarcted portion of the kidney. Subsequently, the right renal artery, the renal vein, and the urinary duct was ligated with 4-0 silk, and the right kidney were resected. The abdominal wall and the skin were closed with a 4-0 nylon thread. The anesthetic time was uniformly 30 minutes in all rats. H2 gas (1.3% H2+21% O2+77.7 N2) and control gas (21% O2+79% N2) were filled into gas cylinders in advance at a factory. The H2 group and the control group were allowed to inhale the H2 gas and the control gas that were mixed in advance. All animals were allowed to inhale the assigned gas at 10 L/minute for 1 hour in an established anesthesia box, and inhaled for an additional three minutes to purge the box (i.e. a total of 63 minutes). In the nephrectomy model and SHR, gas inhalation was repeated every day for 4 weeks and 2 weeks, respectively. In order to investigate the time course necessary for H2 gas to exert therapeutic effect, rats implanted with telemetry (8 weeks-old; 3 for each group) were subjected to 5/6 nephrectomy, and the blood pressure fluctuation was continuously monitored (FIG. 1b). In the first gas inhalation immediately after 5/6 nephrectomy, the blood pressure of the H2 gas group was reduced compared to the control group (117.4±1.8 mmHg vs. 125.6±4.7 mmHg, P=0.04). […] Before the start of inhalation on Day 2, there was no difference in blood pressure between the two groups. […] To examine the anti-hypertensive effect of H2 in more detail, chronic and continuous monitoring of blood pressure using a non-invasive method with a wireless implantable telemetry system (FIG. 5a) was conducted. Gas inhalation was started on the day of 5/6 nephrectomy and continued for 4 weeks. Again, there was no difference in the time course of change in renal function between the two groups.
# [2] = test system: spontaneous hypertension rats (SHR); assay: Hemodynamics effect of inhaled H2 in spontaneous hypertension rats (telemetry); assay type: in vivo, rat (SHR/Izumo)
# Experimental: Male Lewis rats (8 weeks-old, body weight 250-300 g), and 10 weeks-old male spontaneous hypertension rats (SHR/Izumo rats; hereinafter simply referred to as SHR) were used (CLEA Japan). Rats were given water and standard food ad libitum, and were not fasted before experiment. Rats were kept under a condition of standardized temperature (22±1° C.) and humidity (55±5) in a 12 hours:12 hours of light-dark cycle. Rats were acclimated to the experimental condition from at least one week before the experiment. This research was approved by institutional animal control committees (Keio University [Tokyo], No. 13002-4; and Nippon Veterinary and Life Science University [Tokyo], No. 30K-61). Rats were randomly assigned to the H2 group or the control group.
# In order to monitor continuous blood pressure fluctuation, telemetry transmitters were implanted into rats. Specifically, rats were anesthetized with isoflurane, and the left groin was disinfected with 1% chlorhexidine. An incision of about 1.5 cm was made in the left groin, the left femoral artery was exposed, and a telemetry transmitter (HD-S10, Physiotel HD Telemetry, Data Science International) catheter was inserted into the left femoral artery. The tip of the transmitter catheter was placed in the abdominal aorta caudally from the branch of the renal artery. The transmitter body was inserted into a subcutaneous pocket made in the left lower back, and the skin was sutured. All surgical intervention was performed under sterile conditions.
# H2 gas (1.3% H2+21% O2+77.7 N2) and control gas (21% O2+79% N2) were filled into gas cylinders in advance at a factory. The H2 group and the control group were allowed to inhale the H2 gas and the control gas that were mixed in advance. All animals were allowed to inhale the assigned gas at 10 L/minute for 1 hour in an established anesthesia box, and inhaled for an additional three minutes to purge the box (i.e. a total of 63 minutes). In the nephrectomy model and SHR, gas inhalation was repeated every day for 4 weeks and 2 weeks, respectively.
# Spontaneous hypertension rats (SHR) are a well-established hereditary hypertensive model that is broadly used in hypertensive research (Okamoto, K. & Aoki, K. Development of a strain of spontaneously hypertensive rats. Jpn. Circ. J. 27, 282-293 (1963); and Rubattu, S., Struk, B., Kreutz, R., Volpe, M. & Lindpaintner, K. Animal models of genetic hypertension: what can we learn for human hypertension? Clin. Exp. Pharmacol. Physiol. 22, S386-393 (1995)). In order to investigate the consistency of the hypotensive effect of H2 in other hypertensive models, the therapeutic effect of H2 gas against hypertension of SHR was investigated (FIG. 1d). […]
# [3] = Week 2 compared to Week 1 of daily inhalation, N=3
# [4] = Week 3 (week after 2 weeks of inhalation)
compound,measurement,setting,value
"[2H][2H] [H2 gas, Molecular hydrogen (H2)]",time course of change in renal function between the two groups,"[1]; 5/6 nephrectomy, 4 weeks of gas inhalation",no difference
same,blood pressure before inhalation compared to the control group,"[1]; after Week 1 of daily inhalation, telemetry",began to decrease
same,difference in blood pressure between H2 and control groups when inhalation was stopped,"[1]; after the first gas inhalation, telemetry",immediately disappeared
same,blood pressure in the first gas inhalation,"[1]; first inhalation immediately after 5/6 nephrectomy, telemetry, N=3, P=0.04 vs control (125.6±4.7)",117.4±1.8 mmHg
same,decrease in blood pressure with longer period of gas inhalation vs control 5/6 nephrectomy,"[1]; inhalation from the day of 5/6 nephrectomy for 4 weeks, telemetry, P<0.05",greater decrease
same,difference in blood pressure between the two groups before the start of inhalation on Day 2,"[1]; telemetry, before inhalation, Day 2",no difference
same,increase in blood pressure,[2]; [3],suppressed
same,increase in heart rate,[2]; [3],suppressed
same,blood pressure after inhalation was stopped,[2]; [4],stayed low
same,heart rate after inhalation was stopped,[2]; [4],stayed low
